Reference: US20170066759A1, “AROMATIC 5-MEMBERED HETEROCYCLIC DERIVATIVE HAVING TRPV4-INHIBITING ACTIVITY” (Shionogi & Co., Ltd., priority 2012, published 2017)

Molecular target: T1, human TRPV4 (hTRPV4/CHO cells) (Homo sapiens, UniProt Q9HBA0)
T1 construct: expressed in transfected cells; host or cells: CHO-K1
Assay: Test Example 4: TRPV4 inhibitory activity (Ki value), 4α-PDD stimulation, Fluo-3 calcium fluorescence (FDSS 3000)
Format: cell-based
Details: 4α-PDD, Fluo-3, Ki calculated from IC50 and EC50 of 4α-PDD, read-out: TRPV4 inhibitory activity (Ki value)
Procedure: TRPV4 Inhibitory Activity (Ki Value)
For each compound, TRPV4 inhibitory activity was measured using cells.
(Method) The procedures of evaluating TRPV4 inhibitory activity of a compound are as follows.
(1) TRPV4 inhibitory activity was measured using CHO-K1 cells stably expressing human TRPV4 (hTRPV4/CHO cells).
(2) Cells were subcultured using the MEM-α medium (SIGMA M4526: 500 ml), FBS (HyCloneSH30070.03: 10%), L-Glutamine 200 mmol/L (GIBCO: 4 mmol/L), P/S (nacalai tesque: 1%), G418 (nacalai tesque: 1 mg/mL).
(3) The 96-well plates which hTRPV4/CHO cells were seeded at densities of 2×10^4 cells/well in the culture medium in the day before the experimental day, and cultured in a CO2 incubator in the presence of 5% CO2 at 37° C. for 24 hours was used as assay plates.
(4) Cells were washed with assay buffer (Hank's Balanced Salt Solution 9.8 g, 1 mol/L HEPES (pH7.5), 250 mmol/L probenecid).
(5) Fluo-3, fluorescent dye for Ca influx assay was added to each well, then the assay plate was incubated in a CO2 incubator in the presence of 5% CO2 at 37° C. for one hour (final conc.; 5 μmol/L Fluo-3).
(6) The assay plate was washed with the assay buffer, and the buffer was remained at 30 μL/well. Then the assay plate was incubated for 10 min at 37° C.
(7) 20 μL of diluted compound solution was added to each well of assay plate, and mixed with built-in Pipette and Mixer of the fluorescence analysis system FDSS 3000 (Hamamatsu Photonics).
(8) 50 μL of 4α-PDD solution (concluding 0.1% Pluronic F-127) was applied to each well of assay plate and mixed.
(9) The fluorescent intensity was measured by FDSS 3000 for 8 min from the point of time addition the compound solution, at Ex 480 nm, Em 540 nm wavelength.
TRPV4 inhibitory activity (Ki value) of a compound was calculated according to the following procedure.
(10) In the presence of the compound, the difference between maximal and minimal of fluorescent intensity value for 8 min from just before addition of 4α-PDD solution was calculated, and it was referred as Max-Min value. Max-Min value of the Ruthenium Red at 10 μM was defined as 100% inhibitory activity, Max-Min value in the absence of the compound was defined as 0% inhibitory activity. TRPV4 inhibitory activity of the compound was calculated by the following formula.
(1−(Max−Min value of the compound−100% inhibitory activity)/(0% inhibitory activity−100% inhibitory activity))×100
(11) By the following formula, inhibitory activity was calculated at 10 points with three fold serial dilution, in the final concentration of the compound from 10 μmol/L to 0.5 nmol/L. The IC50 value was calculated by dose-response curve.
100−[(fluorescent intensity in the presence of the compound−fluorescent intensity of back ground)/(total fluorescent intensity−fluorescent intensity of back ground)]×100
(12) In the presence of the compound, activity of 4α-PDD was measured at 9 points with three fold serial dilution from 20 μmol/L. Activity of 4α-PDD was calculated by the following formula.
(Max−Min value of the each 4α-PDD concentration−0% activity)/(100% activity−0% activity))×100
(13) Effective activity was calculated in 4α-PDD the above. The EC50 value was calculated by dose-response curve.
(14) The Ki value of a compound was calculated by the following formula.
Ki=IC50 value/1+([A]/EC50)
[A]: Concentration of agonist (nmol/L)

T1 sequence (Q9HBA0 whole entry): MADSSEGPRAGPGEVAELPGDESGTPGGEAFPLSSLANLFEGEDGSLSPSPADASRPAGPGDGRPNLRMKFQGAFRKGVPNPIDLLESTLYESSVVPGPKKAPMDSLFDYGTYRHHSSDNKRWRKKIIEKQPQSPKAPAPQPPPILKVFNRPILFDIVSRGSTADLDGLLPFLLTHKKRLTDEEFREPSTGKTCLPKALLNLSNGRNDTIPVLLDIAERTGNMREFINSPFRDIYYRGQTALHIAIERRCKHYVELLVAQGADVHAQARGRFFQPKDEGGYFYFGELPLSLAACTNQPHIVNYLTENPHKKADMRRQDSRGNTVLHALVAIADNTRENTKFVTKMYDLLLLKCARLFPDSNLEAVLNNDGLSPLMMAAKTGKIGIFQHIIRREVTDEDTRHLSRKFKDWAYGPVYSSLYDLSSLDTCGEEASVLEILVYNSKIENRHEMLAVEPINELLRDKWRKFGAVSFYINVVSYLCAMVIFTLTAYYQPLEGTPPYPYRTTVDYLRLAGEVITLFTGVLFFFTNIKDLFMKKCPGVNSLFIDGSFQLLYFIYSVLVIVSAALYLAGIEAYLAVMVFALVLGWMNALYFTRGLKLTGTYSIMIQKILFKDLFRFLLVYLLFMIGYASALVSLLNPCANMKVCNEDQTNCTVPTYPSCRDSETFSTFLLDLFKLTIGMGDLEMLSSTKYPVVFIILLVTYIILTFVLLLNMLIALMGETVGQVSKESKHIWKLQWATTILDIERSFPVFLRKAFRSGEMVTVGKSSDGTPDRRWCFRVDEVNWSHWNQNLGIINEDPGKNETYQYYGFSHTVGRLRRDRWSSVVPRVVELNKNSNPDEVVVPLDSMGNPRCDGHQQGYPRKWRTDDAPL

Compound | Ki
Cc1nc(C)c(-c2csc(NC(=O)Cc3ccc(C(F)(F)F)c(F)c3)n2)s1 [Compound I-20] | 34.4 nM

Same assay, conditions: Test Example 4, 4α-PDD stimulation, read-out: Test 4 Ki

Compound | Ki
Cc1nc(C)c(-c2csc(NC(=O)C(C)(C)c3ccccc3)n2)s1 [Compound I-1] | 100 to 1000 nM
Cc1nc(C)c(-c2csc(NC(=O)Cc3ccc(S(=O)(=O)C(F)F)cc3)n2)s1 [Compound I-36] | < 100 nM
Cc1nc(C)c(-c2csc(NC(=O)C3(c4ccc(Cl)cc4)CC3)n2)s1 [Compound I-2] | 100 to 1000 nM
Cc1nc(C)c(-c2csc(NC(=O)C(C)(C)c3ccc(Cl)cc3)n2)s1 [Compound I-3] | 100 to 1000 nM
Cc1nc(C)c(-c2csc(NC(=O)CC(F)(F)F)n2)s1 [Compound I-45] | 100 to 1000 nM
Cc1nc(C)c(-c2csc(NC(=O)Cc3ccc(Cl)cc3)n2)s1 [Compound I-230] | < 100 nM
Cc1nc(C)c(-c2csc(NC(=O)CC3CCC3)n2)s1 [Compound I-54] | < 100 nM
CCCCCCCCCCCC(=O)Nc1nc(-c2sc(C)nc2C)cs1 [Compound I-220] | 100 to 1000 nM
Cc1nc(C)c(-c2csc(NC(=O)c3ccc(S(=O)(=O)C(F)(F)F)cc3)n2)s1 [Compound I-24] | 100 to 1000 nM
Cc1nc(C)c(-c2csc(NC(=O)Cc3ccc(SC(F)(F)F)cc3)n2)s1 [Compound I-22] | < 100 nM
O=C(Cc1ccc(C(F)(F)F)cc1)Nc1nc(-c2sc(Cl)nc2Cl)cs1 [Compound I-15] | 100 to 1000 nM
Cc1nc(C)c(-c2csc(NC(=O)Cc3ccc(C(F)(F)F)c(F)c3)n2)s1 [Compound I-20] | < 100 nM
Cc1nc(C)c(-c2csc(NC(=O)COc3ccc(Cl)cc3)n2)s1 [Compound I-229] | < 100 nM
Cc1nc(C)c(-c2csc(NC(=O)Cc3ccc(Cl)c(F)c3)n2)s1 [Compound I-48] | < 100 nM
Cc1nc(C)c(-c2csc(NC(=O)C(C)Oc3ccc(Cl)cc3)n2)s1 (centres unmarked) [Compound I-12] | 100 to 1000 nM
Cc1nc(C)c(-c2csc(Nc3ccc(N(C)C)cc3)n2)s1 [II-28] | 100 to 1000 nM
C=C(C)c1ncc(-c2csc(NC(=O)Cc3ccc(S(=O)(=O)C(F)(F)F)cc3)n2)s1 [Compound I-25] | 100 to 1000 nM
Cc1nc(C)c(-c2csc(NC(=O)C3(C)CC3)n2)s1 [Compound I-28] | 100 to 1000 nM
Cc1nc(C)c(-c2csc(NC(=O)Cc3ccc(OC(F)(F)F)cc3)n2)s1 [Compound I-21] | < 100 nM

Compound | Ki
CC(=O)c1ccc(Nc2nc(-c3sc(C)nc3C)cs2)cc1 [II-25] | 100 to 1000 nM
Cc1nc(C)c(-c2csc(NC(=O)CC3CCS(=O)(=O)C3)n2)s1 (centres unmarked) [Compound I-51] | 1000 to 3000 nM
Cc1nc(C)c(-c2csc(Nc3ccc(Cl)cc3)n2)s1 [II-26] | 100 to 1000 nM
COC(C(=O)Nc1nc(-c2sc(C)nc2C)cs1)c1ccccc1 (centres unmarked) [Compound I-5] | 100 to 1000 nM
Cc1nc(C)c(-c2csc(Nc3ccccc3)n2)s1 [II-30] | 100 to 1000 nM
Cc1nc(C)c(-c2csc(NC(=O)Cc3ccccn3)n2)s1 [Compound I-7] | 100 to 1000 nM
Cc1nc(C)c(-c2csc(NC(=O)Nc3ccc(Br)cc3)n2)s1 [Compound I-233] | 1000 to 3000 nM
Cc1nc(C)c(-c2csc(Nc3ccc(F)cc3)n2)s1 [II-27] | 100 to 1000 nM
Cc1nc(C)c(-c2csc(NC(=O)CC3CC3)n2)s1 [Compound I-33] | 100 to 1000 nM
Cc1nc(C)c(-c2csc(NC(=O)c3ccccc3)n2)s1 [Compound I-234] | 1000 to 3000 nM
CCCCCC(=O)Nc1nc(-c2sc(C)nc2C)cs1 [Compound I-222] | < 100 nM
O=C(Cc1ccc(Br)cc1)Nc1nc(-c2cnc(Cl)s2)cs1 [Compound I-16] | 100 to 1000 nM
COc1ccc(Nc2nc(-c3sc(C)nc3C)cs2)cc1 [II-29] | 100 to 1000 nM
Cc1nc(C)c(-c2csc(NC(=O)C3(O)CC3)n2)s1 [Compound I-26] | 100 to 1000 nM
Cc1nc(C)c(-c2csc(NC(=O)CC#N)n2)s1 [Compound I-40] | 100 to 1000 nM
Cc1nc(C)c(-c2csc(NC(=O)[C@H]3CC[C@H](C#N)C3)n2)s1 (racemic) [Compound I-56] | 100 to 1000 nM
Cc1nc(C)c(-c2csc(NC(=O)Cc3c[nH]c4ccccc34)n2)s1 [Compound I-44] | 100 to 1000 nM
Cc1nc(C)c(-c2csc(NC(=O)[C@H]3CC[C@H](SCC(F)(F)F)C3)n2)s1 (racemic) [Compound I-536] | < 100 nM
Cc1nc(C)c(-c2csc(NC(=O)C3CCC(=O)C3)n2)s1 (racemic) [Compound I-37] | 1000 to 3000 nM

Compound | Ki
Cc1nc(C)c(-c2csc(NC(=O)C(F)c3ccccc3)n2)s1 (centres unmarked) [Compound I-8] | 100 to 1000 nM
Cc1nc(C)c(-c2csc(NC(=O)CCS(=O)(=O)c3ccccc3)n2)s1 [Compound I-41] | 100 to 1000 nM
Cc1nc(C)c(-c2csc(NC(=O)Cc3cc(F)cc(F)c3)n2)s1 [Compound I-52] | < 100 nM
Cc1nc(C)c(-c2csc(NC(=O)Cc3c(F)cccc3F)n2)o1 [Compound I-58] | < 100 nM
Cc1nc(C)c(-c2csc(NC(=O)Cc3ccc(Br)cc3)n2)o1 [Compound I-231] | 100 to 1000 nM
Cc1nc(C)c(-c2csc(NC(=O)CC(C)(C)C)n2)s1 [Compound I-9] | 100 to 1000 nM
CCCC(=O)Nc1nc(-c2sc(C)nc2C)cs1 [Compound I-219] | 100 to 1000 nM
Cc1nc(C)c(-c2csc(NC(=O)C(C)(C)Oc3ccc(Cl)cc3)n2)s1 [Compound I-11] | 100 to 1000 nM
Cc1nc(C)c(-c2csc(NC(=O)CCc3ccccc3)n2)s1 [Compound I-228] | 100 to 1000 nM
Cc1nc(C)c(-c2csc(NC(=O)C3CCCO3)n2)s1 (centres unmarked) [Compound I-6] | 1000 to 3000 nM
Cc1nc(C)c(-c2csc(NC(=O)CCC(F)(F)F)n2)s1 [Compound I-38] | < 100 nM
Cc1nc(C)c(-c2csc(NC(=O)c3ccc(Cl)cc3)n2)s1 [Compound I-227] | 100 to 1000 nM
O=C(Nc1nc(-c2sc(Cl)nc2Cl)cs1)C1CCC(F)(F)C1 (centres unmarked) [Compound I-535] | 100 to 1000 nM
CCCCCCCC(=O)Nc1nc(-c2sc(C)nc2C)cs1 [Compound I-221] | < 100 nM
Cc1nc(C)c(-c2csc(NC(=O)c3ccc(F)c(Cl)c3)n2)s1 [Compound I-10] | 100 to 1000 nM
Cc1nc(C)c(-c2csc(NC(=O)c3ccc(Br)cc3)n2)s1 [Compound I-232] | 100 to 1000 nM
Cc1nc(C)c(-c2csc(NC(=O)[C@H]3CC[C@H](Cl)C3)n2)s1 (racemic) [Compound I-55] | < 100 nM
Cc1nc(C)c(-c2csc(NC(=O)[C@H]3CC[C@H](S(=O)(=O)CC(F)(F)F)C3)n2)s1 (racemic) [Compound I-57] | 100 to 1000 nM
Cc1nc(C)c(-c2csc(NC(=O)C3CCC(NCC(F)(F)F)C3)n2)s1 (racemic) [Compound I-39] | 100 to 1000 nM

Molecular target: T1, human TRPV4 (hTRPV4/CHO cells)
Assay: Test Example 1: TRPV4 inhibitory activity (IC50 value), 4α-PDD stimulation, Fluo4 calcium fluorescence (FLIPR TETRA)
Format: cell-based
Details: Test Example 1, 4α-PDD stimulation, read-out: Test 1 IC50

Compound | IC50
Cc1nc(C)c(-c2csc(NC(=O)Cc3ccc(S(=O)(=O)C(F)F)cc3)n2)s1 [Compound I-36] | < 100 nM
Cc1nc(C)c(-c2csc(NC(=O)C3(c4ccc(Cl)cc4)CC3)n2)s1 [Compound I-2] | 100 to 1000 nM
Cc1nc(C)c(-c2csc(NC(=O)C(C)(C)c3ccc(Cl)cc3)n2)s1 [Compound I-3] | 100 to 1000 nM
Cc1nc(C)c(-c2csc(NC(=O)c3ccc(S(=O)(=O)C(F)(F)F)cc3)n2)s1 [Compound I-24] | 100 to 1000 nM
